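Interpolation was linear, between the two tested concentrations surrounding the appropriate level; five concentrations were tested over 48 hours in 96-well plates. GI50 marks 50% less growth. TGI is the concentration that stops growth completely.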
What was measured:
Assay in all cases: NCI-60 cell line screen, 48 h
SNB-19 CNS = system: SNB-19 CNS
SF-268 CNS = system: SF-268 CNS
MDA-MB-435 = system: MDA-MB-435
U251 CNS = system: U251 CNS
HOP-92 NSCLC = system: HOP-92 NSCLC
MDA-N = system: MDA-N
M14 melanoma = system: M14 melanoma
UO-31 renal = system: UO-31 renal
HL-60(TB) leukemia = system: HL-60(TB) leukemia
SR leukemia = system: SR leukemia

Compound | TGI (SNB-19 CNS) | TGI (SF-268 CNS) | TGI (MDA-MB-435) | TGI (U251 CNS) | TGI (HOP-92 NSCLC) | TGI (MDA-N) | TGI (M14 melanoma) | TGI (UO-31 renal) | GI50 (SNB-19 CNS) | GI50 (U251 CNS) | GI50 (HOP-92 NSCLC) | GI50 (UO-31 renal) | TGI (HL-60(TB) leukemia) | TGI (SR leukemia) | GI50 (SF-268 CNS) | GI50 (SR leukemia) | GI50 (MDA-MB-435) | GI50 (M14 melanoma) | GI50 (HL-60(TB) leukemia)
Cc1oc2nc1C(=O)NCc1nc(cs1)C(=O)N[C@H](C(C)C)c1nc(cs1)C(=O)N[C@H]2C | > 100 µM | > 100 µM | > 100 µM | > 100 µM | > 100 µM | > 100 µM | > 100 µM | > 100 µM | – | – | – | – | – | – | – | – | – | – | –
Cc1c(CNc2ccc(Cl)c(C(=O)NC(CC(=O)O)C(=O)O)c2)ccc2nc(N)nc(N)c12 (configuration not stated) | > 1000 µM | > 1000 µM | > 1000 µM | > 1000 µM | > 1000 µM | > 1000 µM | > 1000 µM | > 1000 µM | 0.382 µM | 75.8 µM | 288 µM | 1.86 µM | > 1000 µM | – | – | – | – | – | –
CCCCC/C=C1/CC(CO)(COC(=O)CC(C(C)C)C(C)C)OC1=O (configuration not stated) | 21.2 µM | 30.3 µM | 19 µM | 27.6 µM | 21.5 µM | 17 µM | 27.1 µM | 24.1 µM | – | – | – | – | – | 42.8 µM | – | – | – | – | –
COc1ccc2oc(S(=O)(=O)N3CC(CCl)c4ccc([N+](=O)[O-])cc43)cc2c1 (configuration not stated) | 29.2 µM | > 39.8 µM | 0.169 µM | 0.348 µM | > 73.8 µM | 11 µM | 32.7 µM | > 40.3 µM | – | – | – | – | – | > 100 µM | – | – | – | – | –
C=Nc1ccc([N+](=O)[O-])cc1 | > 100 µM | > 100 µM | – | > 100 µM | > 100 µM | – | > 100 µM | > 100 µM | – | – | – | – | > 100 µM | > 80.1 µM | – | – | – | – | –
CCOC(=O)C1=CN=C2C(=O)N(c3ccccc3)N(C)C2(C)C1=N (configuration not stated) | > 100 µM | – | > 100 µM | > 100 µM | > 100 µM | > 100 µM | > 100 µM | > 100 µM | – | – | – | – | > 100 µM | – | – | – | – | – | –
C(=N\Nc1ncc(-c2cc3cc4c(cc3o2)OCO4)s1)/c1c[nH]c2ccccc12 | 6.25 µM | 2.86 µM | 4.44 µM | – | 5.34 µM | – | 12.7 µM | 1.57 µM | 1.57 µM | – | 1.49 µM | 0.348 µM | 14.4 µM | > 100 µM | 0.589 µM | 0.912 µM | 1.74 µM | 3.34 µM | 2.18 µM
CC(=O)Nc1ccc2c(C(=O)O)c(C)c(=O)[nH]c2n1 | > 100 µM | > 100 µM | > 100 µM | > 100 µM | 56 µM | > 100 µM | > 100 µM | > 100 µM | – | – | – | – | > 100 µM | – | – | – | – | – | –
O=S(=O)(c1ccccc1)n1c(C(O)c2ccncc2)cc2ccccc21 (configuration not stated) | > 100 µM | – | > 100 µM | > 100 µM | > 100 µM | > 100 µM | > 100 µM | 44.7 µM | – | – | – | – | – | > 100 µM | – | – | – | – | –
CCCC(Sc1nc(N)nc2nc[nH]c12)C(=O)O (configuration not stated) | > 100 µM | > 100 µM | > 100 µM | > 100 µM | > 100 µM | > 100 µM | > 100 µM | > 100 µM | – | – | – | – | > 100 µM | – | – | – | – | – | –
COC(=O)C1=C(C)N2CCCOC2(C)C(C(=O)OC)C1c1cccc(Cl)c1 (configuration not stated) | > 100 µM | > 100 µM | – | – | 73.9 µM | – | 74.7 µM | 71.2 µM | – | – | – | – | 58.4 µM | – | – | – | – | – | –
CCNc1nc(N)c(C(=O)c2ccc(Cl)cc2)s1 | 58.8 µM | > 100 µM | > 100 µM | > 100 µM | > 100 µM | > 100 µM | > 100 µM | 40.2 µM | – | – | – | – | 36 µM | – | – | – | – | – | –
O=C(O)CC(NC(=O)Nc1ccc([N+](=O)[O-])cc1)C(=O)Nc1ccc([N+](=O)[O-])cc1 (configuration not stated) | > 100 µM | > 100 µM | > 100 µM | > 100 µM | – | > 100 µM | > 100 µM | > 100 µM | – | – | – | – | – | – | – | – | – | – | –
COc1cc2c(cc1OCCCC(=O)Nc1cc(C(=O)Nc3cc(C(=O)Nc4cc(C(=O)NCCCN(C)C)n(C)c4)n(C)c3)n(C)c1)N=C[C@@H]1CCCN1C2=O | 17.6 µM | 3.31 µM | 3.48 µM | 3.01 µM | 3.38 µM | 3.8 µM | 3.11 µM | 3.06 µM | – | – | – | – | 3.42 µM | – | – | – | – | – | –
COc1ccc2c(c1)OCC1(O)Cc3ccccc3OC21 (configuration not stated) | – | > 100 µM | > 100 µM | > 100 µM | > 100 µM | > 100 µM | > 100 µM | > 100 µM | – | – | – | – | – | > 100 µM | – | – | – | – | –
Cc1ccc(S(=O)(=O)NC(=O)NC(Cc2c[nH]c3ccccc23)C(=O)O)cc1 (configuration not stated) | > 100 µM | > 100 µM | – | > 100 µM | > 100 µM | > 100 µM | > 100 µM | > 100 µM | – | – | – | – | > 100 µM | > 100 µM | – | – | – | – | –
CC1(C)CCC[C@]2(C)[C@@H]1CC[C@@]13O[C@@H]1C1=C(CO)C(=O)O[C@]14O[C@@H]4[C@@H]23 | 27.9 µM | 29.6 µM | > 53.1 µM | 29.2 µM | 29.3 µM | 20.1 µM | 23.6 µM | 18.7 µM | – | – | – | – | – | > 100 µM | – | – | – | – | –
O=C1COC(c2ccccc2O)=NN1CCCN1CCCC1 | > 100 µM | > 100 µM | > 100 µM | > 100 µM | > 100 µM | > 100 µM | > 100 µM | > 100 µM | – | – | – | – | – | > 100 µM | – | – | – | – | –
Oc1ccc2c(c1)-c1c(c3cc(O)ccc3n1CCN1CCOCC1)CC2 | > 100 µM | > 100 µM | 48.8 µM | 49 µM | > 100 µM | – | 50.1 µM | 57.9 µM | – | – | – | – | 49.3 µM | 61.8 µM | – | – | – | – | –
O=[N+]([O-])c1ccc2c(c1)nc(Cc1ccccc1)n2C[C@@H]1CCCN2CCCCC12 (some centres not stated) | > 100 µM | > 100 µM | 35.5 µM | > 100 µM | > 100 µM | 38.6 µM | 33.1 µM | 22.8 µM | – | – | – | – | – | – | – | – | – | – | –
N#CCCNCCN(CCN(C(=O)Nc1ccccc1)c1ccccc1)C(=O)Nc1ccccc1 | > 100 µM | > 100 µM | – | > 100 µM | > 100 µM | > 100 µM | 46.1 µM | > 100 µM | – | – | – | – | > 100 µM | > 100 µM | – | – | – | – | –
CN(C)CCCn1c(Cc2ccccc2)nc2cc(C(F)(F)F)ccc21 | 86.9 µM | > 100 µM | 32.4 µM | 38.8 µM | 92 µM | 33.1 µM | 30.4 µM | 5.32 µM | – | – | – | – | – | – | – | – | – | – | –
